Where a name gives a salt, the structure may show the parent alone.
System: cancer cells in the urine (urothelial / bladder cancer)
Experiment: Detection of PPIX fluorescence in cells of urine collected after oral ALA hydrochloride (fluorescence microscopy of urinary sediment)
Type: in vivo, human
Details: 1 g ALA hydrochloride oral in 50 ml orange juice; patient suspected of bladder cancer (about 60 kg); urine collected after about 4 hours; FIG. 1
Experimental: 1 g of ALA hydrochloride was dissolved in 50 ml of orange juice, and was given to a patient suspected of having bladder cancer (body weight about 60 kg). Urine was collected after about 4 hours, which was immediately centrifuged (3000 rpm/min., 15 min.) in a light shielded state, and was confirmed by microscopic visualization using sediments. The microscope used was OLYMPUS BX50CCD mounted with camera OLYMPUS DP70. The mirror set was Exciter: XF1076 400AF30 Dichroic:XF2007 475DCLP, Emitter: XF3090 585ALP (OMEGA OPTICAL), all of which being a standard fluorescence microscope system.
The detection method was performed in the same way as Example 1, except that the dosage amount was changed to 500 mg, which is the half amount of Example 1.

NCC(=O)CCC(=O)O [ALA hydrochloride, 5-aminolevulinic acid]
PPIX fluorescence in cells separated from the urine: a clear PPIX fluorescence derived from cancer cell was observed
